Data as given in patent US20240398783A1, “Compounds and Pharmaceutical Compositions Comprising Inhibitors of Amyloid Peptide Interactions with Glycosaminoglycans, Methods of Treatment and Use Thereof” (Gismo Therapeutics, Inc., priority 2021, published 2024).
Counter-ions that a name gives are not always drawn. Like-named read-outs stand apart in the source and are kept apart here.

Tests used:
[1] = molecular target: T1, Amyloid-beta(1-42) oligomer binding to purified human brain membranes (Homo sapiens, UniProt P05067); experiment: Inhibition of Amyloid-beta(1-42) oligomer binding to purified human brain cell membranes (ELISA); conditions: Abeta(1-42) oligomers, read-out: Abeta42/Membrane Activity (IC-50)
T1 construct: Beta-amyloid (1-42) was purchased from rPeptide (Cat. No. A1163); purchased rPeptide A1163
T1 sequence (P05067 672-713): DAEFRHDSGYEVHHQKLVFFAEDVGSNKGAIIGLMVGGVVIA
Protocol: (§1) Purified human brain cell membranes were prepared by differential centrifugation as follows. Five grams of frozen human brain postmortem tissue (obtained from University of Kentucky Alzheimer's Disease Center Tissue Bank) was homogenized in 50 ml HEPES-Buffered sucrose (0.32M sucrose, 4 mM HEPES pH7.4, protease inhibitors) with a motor driven glass-teflon homogenizer. After removing nuclear and cell debris by centrifugation of homogenates at 1,000×g for 10 min at 4 degree Celsius, post-nuclear supernatant was centrifuged at 100,000×g for 30 minutes to yield the crude membrane pellet. Crude membrane pellet was re-suspended in 0.32M sucrose, then centrifuged again at 100,000×g for 30 minutes to yield washed membrane pellet. Membrane pellet was resuspended in sterile PBS (pH7.4), quickly frozen, and kept in aliquots at −80 degrees Celsius. This preparation contains human brain cell membranes. Protein concentration was measured with BCA protein assay kit (Pierce Cat. No. 23227). Purified brain membranes were diluted to 0.01 mg/ml in PBS (pH 7.4) and then added to a 96 well polystyrene ELISA plate (NUNC Cat. No. 449824; 100 μl per well). Plates were incubated Over Night (ON) at 4 degrees Celsius. Following the incubation, the plate was washed consecutively, by immersion, with de-ionized water and PBS (pH 7.4). The ELISA plate was then blocked with nonfat milk (2%, 200 μl per well) for 2 hours at Room Temperature (RT). Following blocking, the plate was washed with de-ionized water then PBS (pH 7.4). GBAPs were dissolved and diluted in PBS (pH 6.5, supplemented with 0.1% BSA) at desired concentrations, added to the ELISA plates coated with brain membranes (100 μl per well) and incubated for 2 hours at RT with gentle shaking. Following incubation, the plate was washed with de-ionized water and three times with PBS (pH 6.5) plus Tween. Bound GBAP was detected by a monoclonal antibody specific for that GBAP, followed by incubation with secondary antibody conjugated to horseradish peroxidase (HRP). Antibody was diluted in PBS (pH6.5 supplemented with 1% BSA). Following each incubation with antibody, the plate was washed with de-ionized water and three times with PBS (pH6.5) wash buffer containing 0.1% Tween. The peroxidase substrate chromogen, TMB (Dako Cat. No. S1599) was added (100 μl per well) to the ELISA plate and incubated at room temperature. After 5 minutes ELISA Stop Solution (hydrochloric acid 1N, sulfuric acid 3N) was added (100 μl per well) to stop the peroxidase catalyzed colorimetric reaction. The Optical Density of the samples was measured at 450 nm using an ELISA plate reader (BioTek Synergy H1). Following color development, the % inhibition compared to control was determined. IC-50s were calculated using GraphPad Prism software.
The assay was performed as described in Example 49, with the following modifications. Following to coating the plates with purified human brain cell membranes, plates were washed as described. The compounds were dissolved in DMSO at 10 mM final concentration and further diluted prior to assay. DMSO concentration in the screening well was up to 2%. Individual compounds were co-incubated with Beta-amyloid peptides on plates coated with purified human brain membranes. Beta-amyloid (1-42) oligomers were prepared as described in Example 2. Beta-amyloid (1-40) from rPeptide (Cat No. A1153) was dissolved in DMSO, quickly frozen and kept in aliquots at −80 degrees Celsius. Beta-amyloid (1-42) oligomers or Beta-amyloid (1-40) dissolved in PBS (pH 6.5, supplemented with BSA, 0.1%) were added to the ELISA plate (100 μl per well) and incubated for 2 hours at RT with gentle shaking. Following the incubation, the plate was washed with de-ionized water and three times with PBS (pH 6.5) plus Tween. […]

[2] = molecular target: Tau binding to purified human brain membranes (Homo sapiens, UniProt P10636); experiment: Inhibition of Tau binding to purified human brain cell membranes (ELISA)
Tau binding to purified human brain membranes, sequence (P10636 with tags, fused parts or gaps): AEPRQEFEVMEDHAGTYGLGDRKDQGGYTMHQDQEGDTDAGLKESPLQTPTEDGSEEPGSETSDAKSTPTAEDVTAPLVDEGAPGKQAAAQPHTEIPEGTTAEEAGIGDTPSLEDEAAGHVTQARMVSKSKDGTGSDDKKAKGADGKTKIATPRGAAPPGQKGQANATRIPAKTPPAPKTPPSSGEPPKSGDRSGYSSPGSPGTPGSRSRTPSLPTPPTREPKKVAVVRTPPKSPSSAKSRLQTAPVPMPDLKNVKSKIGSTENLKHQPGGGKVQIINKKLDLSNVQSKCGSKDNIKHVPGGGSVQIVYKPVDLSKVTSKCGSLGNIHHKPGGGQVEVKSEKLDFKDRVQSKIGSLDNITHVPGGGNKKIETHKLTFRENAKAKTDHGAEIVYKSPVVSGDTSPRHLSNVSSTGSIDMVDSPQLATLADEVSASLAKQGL
Protocol: as §1
The assay was performed as described in Example 49, with the following modifications.
Following to coating the plates with purified human brain cell membranes, plates were washed as described. The compounds were dissolved in DMSO at 10 mM final concentration and further diluted prior to assay. DMSO concentration in the screening well was up to 2%. Individual compounds were co-incubated with Tau on plates coated with purified human brain membranes. Tau purchased from rPeptide (Cat. No. T1001) was dissolved in DMSO (Sigma Cat. No. D2650), quickly frozen and kept in aliquots at −80 degrees Celsius. Tau dissolved in PBS (pH 6.5, supplemented with BSA, 0.1%) was added to the ELISA plate (100 μl per well) and incubated for 2 hours at RT with gentle shaking. Following the incubation, the plate was washed with de-ionized water and three times with PBS (pH 6.5) plus Tween. Bound Tau was detected by anti-Tau Monoclonal Antibody D-8 (Santa Cruz Cat. No. sc-166060), followed by secondary anti-IgG antibody conjugated to HRP (R&D System, Cat. No. HAF007). Following to color development with TMB, as described in Example 49, the Optical Density of the samples was measured at 450 nm using an ELISA plate reader. […]

[3] = Tau, purified human brain membranes, read-out: Tau/Membrane Activity (IC-50)

| IC50 [2, 3] [µM] | SMILES | IC50 [1] [µM] | IC50 [2] [µM] |
| --- | --- | --- | --- |
| 0.49 | Cc1cc(-n2ccnc2)ccc1/C=N/Nc1ccnc2cc(Cl)ccc12 [Compound 1, (E)-4-((E)-(4-(1H-imidazol-1-yl)-2-methylbenzylidene)hydrazono)-7-chloro-1,4-dihydroquinoline] | 2.97 | – |
| – | Cc1ncn(-c2ccc(/C=N/Nc3ccnc4cc(Cl)ccc34)cc2)c1C [Compound 2, (E)-7-chloro-4-((E)-(4-(4,5-dimethyl-1H-imidazol-1-yl)benzylidene)hydrazono)-1,4-dihydroquinoline] | – | 11.4 |
| – | Clc1ccc2c(N/N=C/c3ccc(-n4cccn4)cc3)ccnc2c1 [Compound 3, (E)-4-((E)-(4-(1H-pyrazol-1-yl)benzylidene)hydrazono)-7-chloro-1,4-dihydroquinoline] | 11.5 | 8.82 |
| – | Fc1ccc2c(N/N=C/c3ccc(-n4ccnc4)cc3)ccnc2c1 [Compound 5, (E)-4-(2-(4-(1H-imidazol-1-yl)benzylidene)hydrazinyl)-7-fluoroquinoline] | – | 0.84 |
| – | Fc1ccc2c(N/N=C/c3ccc(CN4CCOCC4)cc3)ccnc2c1 [Compound 6, (E)-4-(4-((2-(7-fluoroquinolin-4-yl)hydrazono)methyl)benzyl)morpholine] | – | 0.63 |
| – | CN1CCN(Cc2ccc(/C=N/Nc3ccnc4cc(Cl)ccc34)cc2)CC1 [Compound 7, (E)-7-chloro-4-(2-(4-((4-methylpiperazin-1-yl)methyl)benzylidene)hydrazinyl)quinolone] | – | 1.22 |
| – | COc1cc2nccc(NN=Cc3ccc(-n4ccnc4)c(C)c3)c2cc1OC [Compound 11, 4-(2-(4-(1H-imidazol-1-yl)-3-methylbenzylidene)hydrazineyl)-6,7-dimethoxyquinoline hydrochloride] | – | 8.31 |
| – | COc1ccc2c(NN=Cc3ccc(-n4ccnc4)c(C)c3)ccnc2c1 [Compound 12, 4-(2-(4-(1H-imidazol-1-yl)-3-methylbenzylidene)hydrazineyl)-7-methoxyquinoline] | – | 29.9 |
| – | Clc1ccc2c(N/N=C/c3ccc(-n4ccnc4)nc3)ccnc2c1 [Compound 14, (E)-4-(2-((6-(1H-imidazol-1-yl)pyridin-3-yl)methylene)hydrazineyl)-7-chloroquinoline hydrochloride] | 6.03 | 1.86 |
| – | Cc1ncn(-c2ccc(/C=N\Nc3ncnc4cc(Cl)ccc34)cn2)c1C [Compound 15, 7-chloro-4-(2-((6-(4,5-dimethyl-1H-imidazol-1-yl)pyridin-3-yl)methylene)hydrazineyl)quinazoline hydrochloride] | 7.05 | – |
| – | C/C(=N\Nc1ncnc2cc(Cl)ccc12)c1ccc(-n2cnc(C)c2C)nc1 [Compound 16, 7-chloro-4-(2-(1-(6-(4,5-dimethyl-1H-imidazol-1-yl)pyridin-3-yl)ethylidene)hydrazineyl)quinazoline phosphate] | 3.29 | 9.61 |
| – | C/C(=N\Nc1ncnc2cc(F)ccc12)c1ccc(-n2cnc(C)c2C)nc1 [Compound 21, (E)-4-(2-(1-(6-(4,5-dimethyl-1H-imidazol-1-yl)pyridin-3-yl)ethylidene)hydrazineyl)-7-fluoroquinazoline] | 3.3 | – |
| – | CC(=NNc1ccnc2cc(Cl)ccc12)c1ccc(-n2cnc(C)c2C)nc1 [Compound 22, 7-chloro-4-(2-(1-(6-(4,5-dimethyl-1H-imidazol-1-yl)pyridin-3-yl)ethylidene)hydrazineyl)quinoline] | 3.56 | – |
| – | Cc1ncn(-c2ccc(Nc3ncnc4cc(Cl)ccc34)cn2)c1C [Compound 25, 7-chloro-N-(6-(4,5-dimethyl-1H-imidazol-1-yl)pyridin-3-yl)quinazolin-4-amine] | 7.01 | – |
| – | C/C(=N\Nc1ncnc2cc(Cl)ccc12)c1ccc(-n2cc(C)nc2C)nc1 [Compound 27, (E)-7-chloro-4-(2-(1-(6-(2,4-dimethyl-1H-imidazol-1-yl)pyridin-3-yl)ethylidene)hydrazineyl)quinazoline hydrochloride] | 3.97 | – |
| – | Clc1ccc2c(Nc3ccc(-n4cncn4)nc3)ncnc2c1 [Compound 34, N-(6-(1H-1,2,4-triazol-1-yl)pyridin-3-yl)-7-chloroquinazolin-4-amine phosphoric acid salt] | 10.4 | – |
| – | Fc1cc(/C=N/Nc2ccnc3cc(Cl)ccc23)ccc1-n1ccnc1 [Compound 35, (E)-7-chloro-4-(2-(3-fluoro-4-(1H-imidazol-1-yl)benzylidene)hydrazineyl)quinoline hydrochloride] | 10.4 | – |
| – | CC(=NNc1ccnc2cc(Cl)ccc12)c1ccc(-n2ccnc2)cc1 [Compound 36, 4-(2-(1-(4-(1H-imidazol-1-yl)phenyl)ethylidene)hydrazineyl)-7-chloroquinoline phosphate] | 18.7 | – |
| – | Clc1ccc2c(N/N=C/c3ccc(-n4ccnc4)cc3)ccnc2c1 [Compound 38, 4-(2-(4-(1H-imidazol-1-yl)benzylidene)hydrazineyl)-7-chloroquinoline dihydrochloride] | 4.62 | 4.86 |
| – | CCN1CCN(c2ccc(Nc3ccnc4cc5ccccc5cc34)cc2)CC1 [Compound 39, N-(4-(4-ethylpiperazin-1-yl)phenyl)benzo[g]quinolin-4-amine] | – | 54.1 |
| – | Cc1ncn(-c2ncc(Nc3ncnc4cc(Cl)ccc34)cc2O)c1C [Compound 40, 5-((7-chloroquinazolin-4-yl)amino)-2-(4,5-dimethyl-1H-imidazol-1-yl)pyridin-3-ol phosphoric acid salt] | 4.36 | 65.1 |
| 5.58 | Clc1ccc2c(Nc3ccc(-n4ccnc4)nc3)ncnc2c1 [Compound 41, N-(6-(1H-imidazol-1-yl)pyridin-3-yl)-7-chloroquinazolin-4-amine] | – | – |

| SMILES | IC50 [2, 3] [µM] | IC50 [1] [µM] | IC50 [2] [µM] |
| --- | --- | --- | --- |
| C/C(=N\Nc1nncc2cc(Cl)ccc12)c1ccc(-n2cc(C)nc2C)nc1 [Compound 24, (E)-6-chloro-1-(2-(1-(6-(2,4-dimethyl-1H-imidazol-1-yl)pyridin-3-yl)ethylidene)hydrazineyl)phthalazine] | 2.56 | 6.67 | – |
